Like-named read-outs stand apart in the source and are kept apart here.
Experiments:
[1] = target: T1, ALK (Homo sapiens, UniProt Q9UM73); experiment: ALK Kinase Assay (ELISA/TRF, PLC-γ substrate); assay type: biochemical; conditions: read-out: ALK Potency
T1 construct: host or cells: baculovirus expression system
In short: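 First, plates are coated with substrate (phospholipase C-γ, 10 μg/mL, TBS). Next, 30 ng/ml ALK initiates phosphorylation for 15 min at 37° C. Then Eu-N1 PT66 antibody is added for detection, and a nonlinear dose-response fit of percent inhibition yields IC50.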

[2] = target: T2, JAK2 (Homo sapiens, UniProt O60674); experiment: Recombinant Human JAK2 Kinase Assay (TRF); assay type: biochemical; conditions: read-out: JAK2 Potency
T2 construct: host or cells: baculovirus expression system
T2 sequence (O60674 whole entry): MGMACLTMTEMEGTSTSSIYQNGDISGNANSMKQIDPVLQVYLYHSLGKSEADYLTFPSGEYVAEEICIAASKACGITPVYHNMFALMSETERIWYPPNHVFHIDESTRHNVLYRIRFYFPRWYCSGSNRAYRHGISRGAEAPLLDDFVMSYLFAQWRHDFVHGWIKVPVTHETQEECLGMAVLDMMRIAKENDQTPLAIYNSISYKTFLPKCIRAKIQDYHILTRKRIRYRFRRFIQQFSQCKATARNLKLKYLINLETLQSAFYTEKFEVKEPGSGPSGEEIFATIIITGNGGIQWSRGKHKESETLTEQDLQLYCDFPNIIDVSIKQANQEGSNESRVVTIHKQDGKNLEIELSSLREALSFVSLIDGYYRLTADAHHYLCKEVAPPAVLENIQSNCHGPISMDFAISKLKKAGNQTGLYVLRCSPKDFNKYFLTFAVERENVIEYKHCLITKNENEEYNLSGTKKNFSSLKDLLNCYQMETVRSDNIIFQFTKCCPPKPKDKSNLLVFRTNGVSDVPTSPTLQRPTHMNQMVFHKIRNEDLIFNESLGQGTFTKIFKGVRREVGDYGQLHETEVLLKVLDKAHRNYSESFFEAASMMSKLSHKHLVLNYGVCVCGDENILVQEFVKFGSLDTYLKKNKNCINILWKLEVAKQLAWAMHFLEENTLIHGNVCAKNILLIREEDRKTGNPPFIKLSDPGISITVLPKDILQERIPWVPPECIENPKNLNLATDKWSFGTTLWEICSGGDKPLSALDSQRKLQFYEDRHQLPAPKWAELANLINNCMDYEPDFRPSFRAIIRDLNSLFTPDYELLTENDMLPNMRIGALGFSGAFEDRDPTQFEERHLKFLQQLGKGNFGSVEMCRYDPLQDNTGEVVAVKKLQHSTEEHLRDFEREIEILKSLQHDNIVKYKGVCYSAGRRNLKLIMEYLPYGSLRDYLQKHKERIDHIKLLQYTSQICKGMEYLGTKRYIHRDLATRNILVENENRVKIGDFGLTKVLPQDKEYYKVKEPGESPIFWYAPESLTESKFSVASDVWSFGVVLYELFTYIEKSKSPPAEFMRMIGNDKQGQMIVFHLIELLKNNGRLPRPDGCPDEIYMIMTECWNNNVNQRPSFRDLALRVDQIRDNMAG
In short: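 TRF read-out: Eu-N1 PY100 anti-phosphotyrosine antibody detects product. Enzyme is baculovirus-expressed JAK2 at 15 ng/ml; substrate is a biotinyl 15-mer peptide bound to Neutravidin-coated wells. Buffer 20 mM HEPES pH 7.2, 0.2 μM ATP, 1 mM MnCl2, 0.1% BSA, 2.5% DMSO final; 20 min, RT.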

[3] = ALK kinase inhibition, 1 μM ATP
[4] = JAK2 kinase inhibition, 0.2 μM ATP

T1 sequence (Q9UM73 19-1620): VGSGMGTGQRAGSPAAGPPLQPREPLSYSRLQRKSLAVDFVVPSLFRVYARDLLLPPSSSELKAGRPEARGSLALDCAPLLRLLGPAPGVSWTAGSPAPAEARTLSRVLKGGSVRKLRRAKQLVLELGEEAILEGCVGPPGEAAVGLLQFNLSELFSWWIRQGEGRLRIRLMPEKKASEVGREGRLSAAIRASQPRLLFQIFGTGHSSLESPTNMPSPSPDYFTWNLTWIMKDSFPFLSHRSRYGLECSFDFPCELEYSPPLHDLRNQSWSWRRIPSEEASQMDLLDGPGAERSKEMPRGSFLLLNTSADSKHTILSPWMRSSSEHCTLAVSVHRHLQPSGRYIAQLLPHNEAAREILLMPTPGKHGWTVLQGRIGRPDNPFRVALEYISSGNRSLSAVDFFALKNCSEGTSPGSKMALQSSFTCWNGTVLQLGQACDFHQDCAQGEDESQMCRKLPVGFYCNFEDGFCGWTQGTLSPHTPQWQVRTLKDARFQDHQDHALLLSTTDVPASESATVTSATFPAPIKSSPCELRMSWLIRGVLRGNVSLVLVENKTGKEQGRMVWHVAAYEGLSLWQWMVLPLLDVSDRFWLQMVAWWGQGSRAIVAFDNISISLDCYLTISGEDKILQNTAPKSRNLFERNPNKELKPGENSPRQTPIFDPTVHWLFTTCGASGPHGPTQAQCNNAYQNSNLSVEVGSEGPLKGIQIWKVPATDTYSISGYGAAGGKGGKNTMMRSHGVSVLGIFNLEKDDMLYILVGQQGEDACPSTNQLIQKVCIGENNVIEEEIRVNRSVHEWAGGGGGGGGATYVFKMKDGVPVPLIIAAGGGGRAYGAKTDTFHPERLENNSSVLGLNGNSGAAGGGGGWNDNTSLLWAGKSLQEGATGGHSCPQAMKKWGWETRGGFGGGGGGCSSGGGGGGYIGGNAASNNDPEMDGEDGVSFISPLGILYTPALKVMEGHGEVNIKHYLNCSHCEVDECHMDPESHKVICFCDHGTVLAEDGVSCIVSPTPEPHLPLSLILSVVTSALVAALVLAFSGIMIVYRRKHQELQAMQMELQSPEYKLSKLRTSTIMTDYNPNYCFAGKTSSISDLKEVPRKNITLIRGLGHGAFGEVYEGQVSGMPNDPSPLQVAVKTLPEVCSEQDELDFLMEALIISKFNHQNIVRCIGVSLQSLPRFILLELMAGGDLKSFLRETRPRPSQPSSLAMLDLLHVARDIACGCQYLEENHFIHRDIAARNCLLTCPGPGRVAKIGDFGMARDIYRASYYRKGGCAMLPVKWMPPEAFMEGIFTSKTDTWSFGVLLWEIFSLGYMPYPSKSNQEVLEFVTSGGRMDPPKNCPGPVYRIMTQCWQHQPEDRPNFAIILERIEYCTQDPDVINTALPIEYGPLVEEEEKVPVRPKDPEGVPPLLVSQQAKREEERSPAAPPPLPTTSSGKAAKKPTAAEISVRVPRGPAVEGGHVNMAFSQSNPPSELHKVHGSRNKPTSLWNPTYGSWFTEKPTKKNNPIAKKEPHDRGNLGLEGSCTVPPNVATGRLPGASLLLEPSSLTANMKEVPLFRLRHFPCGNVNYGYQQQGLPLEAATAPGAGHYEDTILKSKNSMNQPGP

Structure (SMILES) | IC50 ([1]; ALK Kinase Inhibition) [nM] | IC50 ([2]; JAK2 Kinase Inhibition) [nM] | IC50 [1, 3] [nM] | IC50 [2, 4] [nM]
O=S(=O)(c1cccc(-c2ccc3cnc(Nc4ccc(N5CCOCC5)cc4)nn23)c1)N1CCCC1 [Example 358, (4-Morpholin-4-yl-phenyl)-{7-[3-(pyrrolidine-1-sulfonyl)-phenyl]-pyrrolo[2,1-f][1,2,4]triazin-2-yl}-amine] | 100 to 1000 | < 100 |  | 
COc1cc(Nc2ncc3ccc(-c4ccc(S(C)(=O)=O)cc4)n3n2)cc(OC)c1OC [Example 162, [7-(4-Methanesulfonyl-phenyl)-pyrrolo[2,1-f][1,2,4]triazin-2-yl]-(3,4,5-trimethoxy-phenyl)-amine] | 100 to 1000 | < 100 |  | 
COc1ccc(Nc2ncc3ccc(-c4cccnc4)n3n2)cc1N1CCOCC1 [Example 396, (4-Methoxy-3-morpholin-4-yl-phenyl)-(7-pyridin-3-yl-pyrrolo[2,1-f][1,2,4]triazin-2-yl)-amine] | 100 to 1000 | < 100 |  | 
COc1ccccc1-c1ccc2cnc(Nc3cnn(CCN4CCOCC4)c3)nn12 [Example 1190, [7-(2-Methoxy-phenyl)-pyrrolo[2,1-f][1,2,4]triazin-2-yl]-[1-(2-morpholin-4-yl-ethyl)-1H-pyrazol-4-yl]-amine] |  |  | 1000 to 10000 | < 100
COc1ccc(Cl)cc1-c1ccc2cnc(Nc3ccc(N4CCN(CC(C)(C)O)CC4)cc3)nn12 [Example 222, 1-(4-{4-[7-(5-Chloro-2-methoxy-phenyl)-pyrrolo[2,1-f][1,2,4]triazin-2-ylamino]-phenyl}-piperazin-1-yl)-2-methyl-propan-2-ol] | < 100 | < 100 |  | 
COc1cc(C2CCN(CC(N)=O)CC2)ccc1Nc1ncc2ccc(-c3cccc4c3OC(F)(F)O4)n2n1 [Example 1533, 2-(4-{4-[7-(2,2-Difluoro-benzo[1,3]dioxol-4-yl)-pyrrolo[2,1-f][1,2,4]triazin-2-ylamino]-3-methoxy-phenyl}-piperidin-1-yl)-acetamide] | < 100 | 1000 to 10000 |  | 
CS(=O)(=O)c1cccc(-c2ccc3cnc(Nc4ccc5c(c4)CCC(N4CCOCC4)CC5)nn23)c1 (centres unmarked) [Example 611, [7-(3-Methanesulfonyl-phenyl)-pyrrolo[2,1-f][1,2,4]triazin-2-yl]-(7-morpholin-4-yl-6,7,8,9-tetrahydro-5H-benzocyclohepten-2-yl)-amine] |  |  | 100 to 1000 | < 100
CN1CCN(CCCOc2ccc(Nc3ncc4ccc(-c5cccnc5)n4n3)cc2)CC1 [Example 120, {4-[3-(4-Methyl-piperazin-1-yl)-propoxy]-phenyl}-(7-pyridin-3-yl-pyrrolo[2,1-f][1,2,4]triazin-2-yl)-amine] | 100 to 1000 | < 100 |  | 
COc1ccc(-c2ccc3cnc(Nc4ccc5c(c4)CN(CC(N)=O)CC5)nn23)cn1 [Example 986, 2-{7-[7-(6-Methoxy-pyridin-3-yl)-pyrrolo[2,1-f][1,2,4]triazin-2-ylamino]-3,4-dihydro-1H-isoquinolin-2-yl}-acetamide] |  |  | 1000 to 10000 | < 100
CS(=O)(=O)c1cccc(-c2ccc3cnc(Nc4ccc(C5CCNCC5)nc4)nn23)c1 [Example 1025, (1′,2′,3′,4′,5′,6′-Hexahydro-[2,4′]bipyridinyl-5-yl)-[7-(3-methanesulfonyl-phenyl)-pyrrolo[2,1-f][1,2,4]triazin-2-yl]-amine] |  |  | 100 to 1000 | < 100
CN(c1ccccc1-c1ccc2cnc(Nc3ccc4c(c3)N(S(C)(=O)=O)CCC4)nn12)S(C)(=O)=O [Example 1062, N-{2-[2-(1-Methanesulfonyl-1,2,3,4-tetrahydro-quinolin-7-ylamino)-pyrrolo[2,1-f][1,2,4]triazin-7-yl]-phenyl}-N-methyl-methanesulfonamide] |  |  | 100 to 1000 | < 100
COc1ccccc1NCc1ccc2cnc(Nc3ccc(N4CCOCC4)cc3)nn12 [Example 364, {7-[(2-Methoxy-phenylamino)-methyl]-pyrrolo[2,1-f][1,2,4]triazin-2-yl}-(4-morpholin-4-yl-phenyl)-amine] | > 10000 | < 100 |  | 
CN(Cc1cccc(-c2ccc3cnc(Nc4ccc5c(c4)NC(=O)C5(C)C)nn23)c1)S(C)(=O)=O [Example 1054, N-{3-[2-(3,3-Dimethyl-2-oxo-2,3-dihydro-1H-indol-6-ylamino)-pyrrolo[2,1-f][1,2,4]triazin-7-yl]-benzyl}-N-methyl-methanesulfonamide] |  |  | > 10000 | < 100
CS(=O)(=O)N1CC=C(c2ccc3cnc(Nc4ccc(N5CCOCC5)cc4)nn23)CC1 [Example 1129, [7-(1-Methanesulfonyl-1,2,3,6-tetrahydro-pyridin-4-yl)-pyrrolo[2,1-f][1,2,4]triazin-2-yl]-(4-morpholin-4-yl-phenyl)-amine] |  |  | 1000 to 10000 | < 100
CN1CCN(c2ccc(Nc3ncc4ccc(-c5cccnc5Cl)n4n3)cc2)CC1 [Example 1036, [7-(2-Chloro-pyridin-3-yl)-pyrrolo[2,1-f][1,2,4]triazin-2-yl]-[4-(4-methyl-piperazin-1-yl)-phenyl]-amine] |  |  | 100 to 1000 | < 100
COc1ccc(-c2ccc3cnc(Nc4ccc5c(c4)NC(=O)CC5)nn23)cn1 [Example 979, 7-[7-(6-Methoxy-pyridin-3-yl)-pyrrolo[2,1-f][1,2,4]triazin-2-ylamino]-3,4-dihydro-1H-quinolin-2-one] |  |  | 1000 to 10000 | < 100
CN1C(=O)COc2cc(Nc3ncc4ccc(-c5cccc(S(=O)(=O)NC(C)(C)C)c5)n4n3)ccc21 [Example 648, N-tert-Butyl-3-[2-(4-methyl-3-oxo-3,4-dihydro-2H-benzo[1,4]oxazin-7-ylamino)-pyrrolo[2,1-f][1,2,4]triazin-7-yl]-benzenesulfonamide] |  |  | 100 to 1000 | < 100
O=C(NCCN1CCOCC1)c1ccc(-c2ccc3cnc(Nc4ccc(N5CCOCC5)cc4)nn23)cc1 [Example 56, N-(2-Morpholin-4-yl-ethyl)-4-[2-(4-morpholin-4-yl-phenylamino)-pyrrolo[2,1-f][1,2,4]triazin-7-yl]-benzamide] | 1000 to 10000 | < 100 |  | 
COc1cc2c(cc1Nc1ncc3ccc(-c4ccccc4N(C)S(C)(=O)=O)n3n1)CN(C(=O)OC(C)(C)C)C2 [Example 875, 5-{7-[2-(Methanesulfonyl-methyl-amino)-phenyl]-pyrrolo[2,1-f][1,2,4]triazin-2-ylamino}-6-methoxy-1,3-dihydro-isoindole-2-carboxylic acid tert-butyl ester] |  |  | 1000 to 10000 | > 10000

Further lines, results first:

IC50 ([1]; ALK Kinase Inhibition) [nM] | IC50 ([2]; JAK2 Kinase Inhibition) [nM] | IC50 [1, 3] [nM] | IC50 [2, 4] [nM] | Structure (SMILES)
 |  | < 100 | < 100 | COc1ccccc1-c1ccc2cnc(Nc3ccc4c(c3)CCC(N3CCOCC3)CC4)nn12 (centres unmarked) [Example 614, [7-(2-methoxy-phenyl)-pyrrolo[2,1-f][1,2,4]triazin-2-yl]-(7-morpholin-4-yl-6,7,8,9-tetrahydro-5H-benzocyclohepten-2-yl)amine]
 |  | 100 to 1000 | < 100 | CC(C)(C)NS(=O)(=O)c1cccc(-c2ccc3cnc(Nc4ccc(C5CN(CC(N)=O)C5)cc4)nn23)c1 [Example 577, 2-(3-{4-[7-(3-tert-Butylsulfamoyl-phenyl)-pyrrolo[2,1-f][1,2,4]triazin-2-ylamino]-phenyl}-azetidin-1-yl)-acetamide]
 |  | < 100 | < 100 | CN1CCN(CC2CCN(c3ccc(Nc4ncc5ccc(-c6cccc(S(=O)(=O)NC(C)(C)C)c6)n5n4)cc3)CC2)CC1 [Example 589, N-tert-Butyl-3-(2-{4-[4-(4-methyl-piperazin-1-ylmethyl)-piperidin-1-yl]-phenylamino}-pyrrolo[2,1-f][1,2,4]triazin-7-yl)-benzenesulfonamide]
 |  | 100 to 1000 | < 100 | COc1ccccc1-c1ccc2cnc(Nc3ccc4c(cnn4CCN4CCOCC4)c3)nn12 [Example 1346, [7-(2-Methoxy-phenyl)-pyrrolo[2,1-f][1,2,4]triazin-2-yl]-[1-(2-morpholin-4-yl-ethyl)-1H-indazol-5-yl]-amine]
 |  | < 100 | < 100 | COc1cc(N2CCC(N3CC[C@@H](O)C3)CC2)ccc1Nc1ncc2ccc(-c3ccccc3N(C)S(C)(=O)=O)n2n1 [Example 478, N-[2-(2-{4-[4-((R)-3-Hydroxy-pyrrolidin-1-yl)-piperidin-1-yl]-2-methoxy-phenylamino}-pyrrolo[2,1-f][1,2,4]triazin-7-yl)-phenyl]-N-methyl-methanesulfonamide]
 |  | < 100 | < 100 | COc1cc(N2CCC(N3CCN(S(C)(=O)=O)CC3)CC2)ccc1Nc1ncc2ccc(-c3ccccc3OC)n2n1 [Example 535, {4-[4-(4-Methanesulfonyl-piperazin-1-yl)-piperidin-1-yl]-2-methoxy-phenyl}-[7-(2-methoxy-phenyl)-pyrrolo[2,1-f][1,2,4]triazin-2-yl]-amine]
 |  | < 100 | 100 to 1000 | COc1cc(C2CCN(CC(N)=O)CC2)ccc1Nc1ncc2ccc(-c3ccccc3OC)n2n1 [Example 814, 2-(4-{3-Methoxy-4-[7-(2-methoxy-phenyl)-pyrrolo[2,1-f][1,2,4]triazin-2-ylamino]-phenyl}-piperidin-1-yl)-acetamide]
 |  | < 100 | 100 to 1000 | COc1cc2c(cc1Nc1ncc3ccc(-c4ccccc4N(C)S(C)(=O)=O)n3n1)CN(C)C2 [Example 809, N-{2-[2-(6-Methoxy-2-methyl-2,3-dihydro-1H-isoindol-5-ylamino)-pyrrolo[2,1-f][1,2,4]triazin-7-yl]-phenyl}-N-methyl-methanesulfonamide]
 |  | < 100 | 100 to 1000 | COc1cc(CN2CCN(C)CC2)ccc1Nc1ncc2ccc(-c3ccccc3OC)n2n1 [Example 1252, [2-Methoxy-4-(4-methyl-piperazin-1-ylmethyl)-phenyl]-[7-(2-methoxy-phenyl)-pyrrolo[2,1-f][1,2,4]triazin-2-yl]-amine]
